Test results: US10820591B2, “Substituted sulfonyl amides for controlling animal pests” (Bayer Aktiengesellschaft, priority 2016, dated 2020)

Experiments:
Type in all cases: in vivo
Meloidogyne incognita = Meloidogyne incognita test (sand, lettuce, gall formation); conditions: Meloidogyne incognita, 336 h, 20 ppm, after 14 days; read-out: nematicidal efficacy (formation of galls)
Procedure, shortened: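 Vessels held sand, diluted compound solution, M. incognita egg/larvae suspension and lettuce seeds, and the plants grew for 14 days. Efficacy in % came from root gall formation: 100% means no galls, 0% means galls equal to the untreated control.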

Myzus persicae [1] = assay: Myzus persicae oral test; conditions: 120 h, after 5 days, read-out: efficacy
Experimental: Myzus persicae—Oral Test [table] To produce a suitable active compound preparation, 1 part by weight of active compound is dissolved with the stated parts by weight of solvent and made up to the desired concentration with water. 50 μl of the active compound preparation are transferred into microtitre plates and made up to a final volume of 200 μl with 150 μl of IPL41 insect medium (33%+15% sugar). Subsequently, the plates are sealed with parafilm, which a mixed population of green peach aphids (Myzus persicae) within a second microtitre plate is able to puncture and imbibe the solution through it. After 5 days, the efficacy in % is determined. 100% means that all the aphids have been killed; 0% means that no aphids have been killed.

Myzus persicae [2] = assay: Myzus persicae spray test (Chinese cabbage leaf discs); conditions: foliar, 144 h, after 6 days, read-out: efficacy
Experimental: Myzus persicae—Spray Test [table] To produce a suitable active compound preparation, 1 part by weight of active compound is dissolved with the specified parts by weight of solvent and made up to the desired concentration with water containing an emulsifier concentration of 1000 ppm. To produce further test concentrations, the formulation is diluted with emulsifier-containing water. Discs of Chinese cabbage leaves (Brassica pekinensis) infested by all stages of the green peach aphid (Myzus persicae) are sprayed with an active compound preparation of the desired concentration. After 6 days, the efficacy in % is determined. 100% means that all the aphids have been killed; 0% means that no aphids have been killed.

Cc1nc(C(=O)NS(=O)(=O)c2ccccc2Cl)cn1-c1c(F)cccc1F [I-004]
pest or weed control at 20 ppm (Meloidogyne incognita): 90%
pest or weed control at 20 ppm (Myzus persicae [1]): 70%

Cc1nc(C(=O)NS(=O)(=O)C(C)C)cn1-c1ccccc1Cl [I-006]
pest or weed control at 20 ppm (Meloidogyne incognita): 100%
pest or weed control at 500 g/ha (Myzus persicae [2]): 90%

N#Cc1c(C(=O)NS(=O)(=O)c2ccccc2Cl)ncn1CCC(F)(F)F [I-007]
pest or weed control at 20 ppm (Meloidogyne incognita): 70%
pest or weed control at 20 ppm (Myzus persicae [1]): 70%

COc1ccc(S(=O)(=O)NC(=O)c2ncn(CCC(F)(F)F)c2Br)cc1 [I-010]
pest or weed control at 20 ppm (Meloidogyne incognita): 90%
pest or weed control at 100 g/ha (Myzus persicae [2]; 100 g/ha): 90%
pest or weed control at 500 g/ha (Myzus persicae [2]): 70%

CCCn1cnc(C(=O)NS(=O)(=O)c2ccc(Cl)cc2)c1Cl [I-042]
pest or weed control at 20 ppm (Meloidogyne incognita): 100%
pest or weed control at 500 g/ha (Myzus persicae [2]): 70%

COc1ccc(Cl)c(S(=O)(=O)NC(=O)c2nc(C)n(-c3cc(Cl)cc(Cl)c3)c2Cl)c1 [I-106]
pest or weed control at 20 ppm (Meloidogyne incognita): 100%
pest or weed control at 4 ppm (Myzus persicae [1]; 4 ppm): 100%

Cn1cc(C(=O)NS(=O)(=O)c2ccccc2Cl)nc1Cc1ccccc1Cl [I-116]
pest or weed control at 20 ppm (Meloidogyne incognita): 90%
pest or weed control at 20 ppm (Myzus persicae [1]): 90%
pest or weed control at 500 g/ha (Myzus persicae [2]): 70%

CC(C)S(=O)(=O)NC(=O)c1cn(C)c(Cc2cccc(Cl)c2)n1 [I-120]
pest or weed control at 20 ppm (Meloidogyne incognita): 100%
pest or weed control at 500 g/ha (Myzus persicae [2]): 90%

Cn1nc(C(=O)NS(C)(=O)=O)cc1-c1cc(Cl)ccn1 [I-127]
pest or weed control at 20 ppm (Meloidogyne incognita): 70%
pest or weed control at 20 ppm (Myzus persicae [1]): 70%
pest or weed control at 500 g/ha (Myzus persicae [2]): 90%

O=C(NS(=O)(=O)c1ccc(Cl)cc1)c1cn(Cc2ccccc2Cl)cn1 [I-158]
pest or weed control at 20 ppm (Meloidogyne incognita): 100%
pest or weed control at 500 g/ha (Myzus persicae [2]): 90%

O=C(NS(=O)(=O)c1ccccc1)c1cn(-c2ccccc2OC(F)(F)F)cn1 [I-214]
pest or weed control at 20 ppm (Meloidogyne incognita): 90%
pest or weed control at 500 g/ha (Myzus persicae [2]): 70%

O=C(NS(=O)(=O)c1c(Cl)cccc1Cl)c1cn(-c2ccccc2F)cn1 [I-220]
pest or weed control at 20 ppm (Meloidogyne incognita): 100%
pest or weed control at 500 g/ha (Myzus persicae [2]): 70%

COc1ccc(Cl)c(S(=O)(=O)NC(=O)c2cn(-c3cc(F)cc(C(F)(F)F)c3)cn2)c1 [I-250]
pest or weed control at 20 ppm (Meloidogyne incognita): 100%
pest or weed control at 100 ppm (Myzus persicae [1]): 100%

Cc1nc(C(=O)NS(=O)(=O)c2c(Cl)cccc2Cl)cn1-c1ccccc1 [I-253]
pest or weed control at 20 ppm (Meloidogyne incognita): 100%
pest or weed control at 100 ppm (Myzus persicae [1]): 100%
pest or weed control at 500 g/ha (Myzus persicae [2]): 90%

Cc1ccc(S(=O)(=O)NC(=O)c2cn(-c3ccccc3)c(C)n2)cc1 [I-254]
pest or weed control at 20 ppm (Meloidogyne incognita): 100%
pest or weed control at 100 ppm (Myzus persicae [1]): 100%
pest or weed control at 500 g/ha (Myzus persicae [2]): 90%

Cc1nc(C(=O)NS(=O)(=O)c2ccccc2Cl)cn1-c1cccc(Cl)c1Cl [I-264]
pest or weed control at 20 ppm (Meloidogyne incognita): 90%
pest or weed control at 100 ppm (Myzus persicae [1]): 100%
pest or weed control at 500 g/ha (Myzus persicae [2]): 70%

COc1ccc(Cl)c(S(=O)(=O)NC(=O)c2cn(-c3ccccc3Cl)c(C)n2)c1 [I-266]
pest or weed control at 20 ppm (Meloidogyne incognita): 100%
pest or weed control at 20 ppm (Myzus persicae [1]): 90%

O=C(NS(=O)(=O)c1c(Cl)cccc1Cl)c1cn(-c2cc(Cl)cc(C(F)(F)F)c2)cn1 [I-286]
pest or weed control at 20 ppm (Meloidogyne incognita): 100%
pest or weed control at 20 ppm (Myzus persicae [1]): 90%

Cc1cc(-n2cnc(C(=O)NS(=O)(=O)c3c(Cl)cccc3Cl)c2)cc(C(F)(F)F)c1 [I-291]
pest or weed control at 20 ppm (Meloidogyne incognita): 90%
pest or weed control at 20 ppm (Myzus persicae [1]): 90%

COc1ccc(Cl)c(S(=O)(=O)NC(=O)c2cn(-c3cc(Cl)c(Br)c(Cl)c3)cn2)c1 [I-314]
pest or weed control at 20 ppm (Meloidogyne incognita): 90%
pest or weed control at 500 g/ha (Myzus persicae [2]): 70%

O=C(NS(=O)(=O)c1cc(Cn2cccn2)ccc1Cl)c1cn(-c2cc(Cl)cc(C(F)(F)F)c2)cn1 [I-346]
pest or weed control at 20 ppm (Meloidogyne incognita): 70%
pest or weed control at 500 g/ha (Myzus persicae [2]): 70%

Cc1nc(C(=O)NS(=O)(=O)c2c(F)cccc2NC(C)C)cn1-c1cc(F)cc(F)c1 [I-385]
pest or weed control at 20 ppm (Meloidogyne incognita): 100%
pest or weed control at 500 g/ha (Myzus persicae [2]): 70%

COc1ccc(Cl)c(S(=O)(=O)NC(=O)c2cn(-c3cc(Cl)cc(C(F)(F)F)c3)c(C(C)C)n2)c1 [I-401]
pest or weed control at 20 ppm (Meloidogyne incognita): 70%
pest or weed control at 500 g/ha (Myzus persicae [2]): 90%

O=C(NS(=O)(=O)c1c(Cl)cccc1Cl)c1nc(Cl)n(CCC(F)(F)F)c1Cl [I-451]
pest or weed control at 20 ppm (Meloidogyne incognita): 90%

Cc1ccccc1S(=O)(=O)NC(=O)c1nc(Cl)n(CCC(F)(F)F)c1Cl [I-452]
pest or weed control at 20 ppm (Meloidogyne incognita): 100%

CSc1cccc(Cl)c1S(=O)(=O)NC(=O)c1nc(Cl)n(CCC(F)(F)F)c1Cl [I-453]
pest or weed control at 20 ppm (Meloidogyne incognita): 100%

COc1ccc(Cl)cc1S(=O)(=O)NC(=O)c1nc(Cl)n(CCC(F)(F)F)c1Cl [I-454]
pest or weed control at 20 ppm (Meloidogyne incognita): 100%

COc1ccc(Br)c(S(=O)(=O)NC(=O)c2nc(Cl)n(CCC(F)(F)F)c2Cl)c1 [I-455]
pest or weed control at 20 ppm (Meloidogyne incognita): 100%

COc1ccc(F)c(S(=O)(=O)NC(=O)c2nc(Cl)n(CCC(F)(F)F)c2Cl)c1 [I-457]
pest or weed control at 20 ppm (Meloidogyne incognita): 100%

O=C(NS(=O)(=O)c1cc(C(F)(F)F)ccc1Cl)c1nc(Cl)n(CCC(F)(F)F)c1Cl [I-458]
pest or weed control at 20 ppm (Meloidogyne incognita): 100%

CCOc1ccc(Cl)c(S(=O)(=O)NC(=O)c2nc(Cl)n(C3CC3C(F)(F)F)c2Cl)c1 (stereo not shown) [I-459]
pest or weed control at 20 ppm (Meloidogyne incognita): 100%

CC(C)Oc1ccc(Cl)c(S(=O)(=O)NC(=O)c2nc(Cl)n(C3CC3C(F)(F)F)c2Cl)c1 (stereo not shown) [I-460]
pest or weed control at 20 ppm (Meloidogyne incognita): 100%
pest or weed control at 20 ppm (Myzus persicae [1]): 70%

O=C(NS(=O)(=O)c1c(Cl)cccc1Cl)c1nc(Cl)n(C2CC2C(F)(F)F)c1Cl (stereo not shown) [I-461]
pest or weed control at 20 ppm (Meloidogyne incognita): 100%

Cc1ccccc1S(=O)(=O)NC(=O)c1nc(Cl)n(C2CC2C(F)(F)F)c1Cl (stereo not shown) [I-462]
pest or weed control at 20 ppm (Meloidogyne incognita): 100%

CSc1cccc(Cl)c1S(=O)(=O)NC(=O)c1nc(Cl)n(C2CC2C(F)(F)F)c1Cl (stereo not shown) [I-463]
pest or weed control at 20 ppm (Meloidogyne incognita): 100%

COc1ccc(Cl)cc1S(=O)(=O)NC(=O)c1nc(Cl)n(C2CC2C(F)(F)F)c1Cl (stereo not shown) [I-464]
pest or weed control at 20 ppm (Meloidogyne incognita): 90%

COc1ccc(Br)c(S(=O)(=O)NC(=O)c2nc(Cl)n(C3CC3C(F)(F)F)c2Cl)c1 (stereo not shown) [I-465]
pest or weed control at 20 ppm (Meloidogyne incognita): 100%

CCc1ccc(C)c(S(=O)(=O)NC(=O)c2nc(Cl)n(C3CC3C(F)(F)F)c2Cl)c1 (stereo not shown) [I-466]
pest or weed control at 20 ppm (Meloidogyne incognita): 100%

COc1ccc(F)c(S(=O)(=O)NC(=O)c2nc(Cl)n(C3CC3C(F)(F)F)c2Cl)c1 (stereo not shown) [I-467]
pest or weed control at 20 ppm (Meloidogyne incognita): 100%

O=C(NS(=O)(=O)c1cc(C(F)(F)F)ccc1Cl)c1nc(Cl)n(C2CC2C(F)(F)F)c1Cl (stereo not shown) [I-468]
pest or weed control at 20 ppm (Meloidogyne incognita): 100%

O=C(NS(=O)(=O)c1ccccc1Cl)c1nc(Cl)n(C2CC2C(F)(F)F)c1Cl (stereo not shown) [I-469]
pest or weed control at 20 ppm (Meloidogyne incognita): 100%

CC(C)S(=O)(=O)NC(=O)c1cn(C)c(C(F)(F)F)n1 [I-471]
pest or weed control at 20 ppm (Meloidogyne incognita): 90%

Cn1cc(C(=O)NS(=O)(=O)c2ccccc2Cl)nc1C(F)(F)F [I-472]
pest or weed control at 20 ppm (Meloidogyne incognita): 90%

Cn1cc(C(=O)NS(=O)(=O)c2ccccc2Br)nc1C(F)(F)F [I-473]
pest or weed control at 20 ppm (Meloidogyne incognita): 90%

Cc1ccccc1S(=O)(=O)NC(=O)c1cn(C)c(C(F)(F)F)n1 [I-474]
pest or weed control at 20 ppm (Meloidogyne incognita): 100%

COc1ccc(Cl)c(S(=O)(=O)NC(=O)c2cn(C)c(C(F)(F)F)n2)c1 [I-475]
pest or weed control at 20 ppm (Meloidogyne incognita): 90%

CC(C)Sc1nc(C(=O)NS(=O)(=O)c2ccccc2Cl)cn1C [I-476]
pest or weed control at 20 ppm (Meloidogyne incognita): 70%

Cc1ccccc1S(=O)(=O)NC(=O)c1cn(C)c(SC(C)C)n1 [I-477]
pest or weed control at 20 ppm (Meloidogyne incognita): 90%

COc1ccccc1S(=O)(=O)NC(=O)c1cn(C)c(SC(C)C)n1 [I-478]
pest or weed control at 20 ppm (Meloidogyne incognita): 70%

COc1ccc(Cl)c(S(=O)(=O)NC(=O)c2ncn(-c3ccccc3Cl)c2C(F)F)c1 [I-479]
pest or weed control at 20 ppm (Meloidogyne incognita): 90%

COc1ccc(Cl)c(S(=O)(=O)NC(=O)c2ncn(-c3cccc(Cl)c3)c2C(F)F)c1 [I-480]
pest or weed control at 20 ppm (Meloidogyne incognita): 90%

COc1ccc(Cl)c(S(=O)(=O)NC(=O)c2ncn(-c3ccc(Cl)cc3)c2C(F)F)c1 [I-481]
pest or weed control at 20 ppm (Meloidogyne incognita): 70%

COc1ccc(Cl)c(S(=O)(=O)NC(=O)c2ncn(-c3ccc(Cl)cc3Cl)c2C(F)F)c1 [I-482]
pest or weed control at 20 ppm (Meloidogyne incognita): 90%

COc1ccc(Cl)c(S(=O)(=O)NC(=O)c2ncn(-c3ccc(Cl)cc3Cl)c2C(C)C)c1 [I-484]
pest or weed control at 20 ppm (Meloidogyne incognita): 70%

COc1ccc(Cl)c(S(=O)(=O)NC(=O)c2ncn(-c3cccc(Cl)c3)c2C2CC2)c1 [I-485]
pest or weed control at 20 ppm (Meloidogyne incognita): 90%

COc1ccc(Cl)c(S(=O)(=O)NC(=O)c2ncn(-c3ccc(Cl)cc3Cl)c2C2CC2)c1 [I-486]
pest or weed control at 20 ppm (Meloidogyne incognita): 70%

COc1ccc(Cl)c(S(=O)(=O)NC(=O)c2ncn(-c3c(F)cccc3F)c2C(F)F)c1 [I-487]
pest or weed control at 20 ppm (Meloidogyne incognita): 100%

COc1ccc(Cl)c(S(=O)(=O)NC(=O)c2ncn(-c3cccc(Cl)c3)c2C(C)C)c1 [I-488]
pest or weed control at 20 ppm (Meloidogyne incognita): 90%

COc1ccc(Cl)c(S(=O)(=O)NC(=O)c2ncn(-c3ccccc3Cl)c2C2CC2)c1 [I-489]
pest or weed control at 20 ppm (Meloidogyne incognita): 90%

COc1ccc(Cl)c(S(=O)(=O)NC(=O)c2ncn(-c3cc(F)ccc3F)c2C2CC2)c1 [I-490]
pest or weed control at 20 ppm (Meloidogyne incognita): 90%

COc1ccc(Cl)c(S(=O)(=O)NC(=O)c2ncn(-c3cc(F)ccc3F)c2C(C)C)c1 [I-491]
pest or weed control at 20 ppm (Meloidogyne incognita): 100%
